# In patent publication US20080069898A1, “Topical Compositions Comprising Myrica Gale Oil” (priority 2004, published 2008):
# System: skin
# Experiment: 96 hour patch test of irritancy
# Settings: 0.3% w/v in sterile water
# Description: A 96 hour patch test was carried out to assess the irritancy or otherwise of Myrica gale oil when applied to the skin. For comparison, a solution of sodium dodecyl sulphate and white soft paraffin were also investigated.
smiles,measurement,value
"CCCCCCCCCCCCOS(=O)(=O)[O-].[Na+] [Sodium dodecyl sulphate (SDS), Sodium dodecyl sulphate]",Mean Dryness (D),0.72
same,Mean Erythema (E),4.54
same,Mean Irritation (E + D),5.26
